Assay results reported in patent US20230159469A1, “NOVEL PHTHALAZINE DERIVATIVE HAVING ECTONUCLOEOTIDE PYROPHOSPHATASE/PHOSPHODIESTE RASE INHIBITORY ACTIVITY, AND USE THEREOF” (TXINNO BIOSCIENCE INC., priority 2020, published 2023).
Where a name gives a salt, the structure may show the parent alone.

Molecular target: T1, human recombinant ENPP1 (Homo sapiens, UniProt P22413)
T1 construct: purchased R & D systems
T1 sequence (P22413 1-925): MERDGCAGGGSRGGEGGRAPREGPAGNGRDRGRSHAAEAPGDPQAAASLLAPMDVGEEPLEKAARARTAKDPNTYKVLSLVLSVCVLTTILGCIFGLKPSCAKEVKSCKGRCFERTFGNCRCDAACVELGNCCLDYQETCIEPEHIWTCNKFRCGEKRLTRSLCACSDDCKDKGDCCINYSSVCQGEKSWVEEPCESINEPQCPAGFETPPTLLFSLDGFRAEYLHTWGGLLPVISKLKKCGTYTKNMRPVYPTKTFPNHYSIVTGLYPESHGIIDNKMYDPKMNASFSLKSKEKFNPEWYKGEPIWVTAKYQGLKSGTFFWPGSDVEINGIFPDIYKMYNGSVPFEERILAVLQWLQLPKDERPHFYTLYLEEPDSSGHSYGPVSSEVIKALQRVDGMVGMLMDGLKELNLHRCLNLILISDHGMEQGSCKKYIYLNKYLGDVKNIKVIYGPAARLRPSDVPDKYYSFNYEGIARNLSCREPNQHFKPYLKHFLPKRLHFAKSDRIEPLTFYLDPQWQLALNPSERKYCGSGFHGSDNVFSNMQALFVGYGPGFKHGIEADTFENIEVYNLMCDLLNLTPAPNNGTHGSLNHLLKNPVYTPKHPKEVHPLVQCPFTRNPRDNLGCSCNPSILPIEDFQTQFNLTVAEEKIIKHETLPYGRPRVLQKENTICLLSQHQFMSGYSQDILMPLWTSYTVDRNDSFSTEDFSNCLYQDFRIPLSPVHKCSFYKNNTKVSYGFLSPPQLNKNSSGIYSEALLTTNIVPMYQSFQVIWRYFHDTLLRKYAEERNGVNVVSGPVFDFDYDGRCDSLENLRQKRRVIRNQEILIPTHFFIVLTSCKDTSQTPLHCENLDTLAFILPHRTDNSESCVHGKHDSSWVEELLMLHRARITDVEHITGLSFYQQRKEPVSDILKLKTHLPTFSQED
Assay: ENPP1 enzyme assay with cGAMP substrate (AMP-Glo luminescence)
Assay type: biochemical
Conditions: human recombinant ENPP1 3 ng/reaction, cGAMP 5 μM, 37° C. 90 minutes, read-out: Enzymatic activity (ENPP1 IC50)
Procedure, shortened: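 Human ENPP1 hydrolysis of 5 μM cGAMP was run for 90 min at 37° C in 50 mM Tris pH 8.5, 250 mM NaCl, 0.5 mM CaCl2, 1 μM ZnCl2, 5% glycerol, 1% DMSO. AMP product was quantified by AMP-Glo luminescence; IC50 came from 3-parameter fits of % residual activity, averaged over at least two runs.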

Compound | IC50 [µM]
Nc1cccc(-c2nn(Cc3ccccc3)c(=O)c3ccccc23)c1 [Compound No. 32, 4-(3-aminophenyl)-2-benzylphthalazin-1(2H)-one hydrochloride] | > 10
CC(C)(C)OC(=O)NS(=O)(=O)Nc1ccc(Cc2n[nH]c(=O)c3ccccc23)cc1 [Example 169, tert-butyl (N-(4-((4-oxo-3,4-dihydrophthalazin-1-yl)methyl)phenyl)sulfamoyl)carbamate] | 1 to 10
CC(C)(NS(N)(=O)=O)c1ccc(-c2n[nH]c(=O)c3ccccc23)cc1 [Compound No. 125, N-(2-(4-(4-oxo-3,4-dihydrophthalazin-1-yl)phenyl)propan-2-yl)sulfamide hydrochloride] | 1 to 10
COc1cc2c(-c3ccc(CNS(N)(=O)=O)cc3C(F)(F)F)n[nH]c(=O)c2cc1OC [Compound No. 116, hydrochloride] | 1 to 10
COc1cc2c(Cc3cccc(N)c3)nn(C)c(=O)c2cc1OC [Example 157, 4-(3-aminobenzyl)-6,7-dimethoxy-2-methylphthalazin-1(2H)-one hydrochloride] | > 10
COc1cc2c(-c3ccc(CN)cc3)nn(C)c(=O)c2cc1OC [Compound No. 49, 4-(4-(aminomethyl)phenyl)-6,7-dimethoxy-2-methylphthalazin-1(2H)-one hydrochloride] | < 1
COc1ccc2c(=O)n(C)nc(-c3ccc(CNS(=O)(=O)NC(=O)OC(C)(C)C)cc3)c2c1 [Compound No. 73, tert-butyl N-(4-(7-methoxy-3-methyl-4-oxo-3,4-dihydrophthalazin-1-yl)benzyl)sulfamoyl carbamate] | > 10
COc1cc2c(-c3ccc4c(c3)CCN(S(N)(=O)=O)C4)n[nH]c(=O)c2cc1OC [Compound No. 130, 6-(6,7-dimethoxy-4-oxo-3,4-dihydrophthalazin-1-yl)-3,4-dihydroisoquinoline-2(1H)-sulfonamide hydrochloride] | 1 to 10
C[C@@H](N)c1ccc(-c2n[nH]c(=O)c3ccccc23)cc1 [Compound No. 51, (R)-4-(4-(1-aminoethyl)phenyl)phthalazin-1(2H)-one hydrochloride] | < 1
COc1cc2c(Cc3ccc(N(C)C(=O)OC(C)(C)C)cc3)n[nH]c(=O)c2cc1OC [Example 152, tert-butyl (4-((6,7-dimethoxy-4-oxo-3,4-dihydrophthalazin-1-yl)methyl)phenyl) (methyl) carbamate] | > 10
CC(C)(C)OC(=O)NS(=O)(=O)NCc1ccc(-c2n[nH]c(=O)c3ccccc23)cc1C(F)(F)F [Compound No. 81, tert-butyl N-(4-(4-oxo-3,4-dihydrophthalazin-1-yl)-2-(trifluoromethyl)benzyl)sulfamoyl carbamate] | > 10
COc1cc2c(-c3ccc(CNC(=O)OC(C)(C)C)cc3)nn(C)c(=O)c2cc1OC [Compound No. 20, tert-butyl (4-(6,7-dimethoxy-3-methyl-4-oxo-3,4-dihydrophthalazin-1-yl)benzyl)carbamate] | > 10
COc1cc2c(Cc3ccc4c(c3)CCN4S(=O)(=O)NC(=O)OC(C)(C)C)n[nH]c(=O)c2cc1OC [Example 176, tert-butyl (5-((6,7-dimethoxy-4-oxo-3,4-dihydrophthalazin-1-yl)methyl)indolin-1-yl)sulfonyl carbamate] | > 10
COc1cc2c(-c3ccc(CN(C)S(N)(=O)=O)c(F)c3)n[nH]c(=O)c2cc1OC [Compound No. 113, N-(4-(6,7-dimethoxy-4-oxo-3,4-dihydrophthalazin-1-yl)-2-fluorobenzyl)-N-methyl sulfamide hydrochloride] | 1 to 10
COc1cc2c(Cc3cccc(NS(N)(=O)=O)c3)n[nH]c(=O)c2cc1OC [Example 178, (N-(3-((6,7-dimethoxy-4-oxo-3,4-dihydrophthalazin-1-yl)methyl)phenyl)sulfamide hydrochloride] | > 10
COc1cc2c(-c3ccc(CN(C)S(N)(=O)=O)cc3C(F)(F)F)n[nH]c(=O)c2cc1OC [Compound No. 118, hydrochloride] | > 10
COc1cc2c(Cc3ccccc3)n[nH]c(=O)c2cc1OC [Compound No. 144, 4-benzyl-6,7-dimethoxyphthalazin-1(2H)-one] | > 10
COc1cc2c(-c3ccc(CN)c(C(F)(F)F)c3)n[nH]c(=O)c2cc1OC [Example 203, 4-(4-(aminomethyl)-3-(trifluoromethyl)phenyl-6,7-dimethoxyphthalazin-1(2.8)-one hydrochloride] | > 10

Compound | IC50 [µM]
COc1ccc2c(-c3ccc(CNS(N)(=O)=O)cc3)nn(C)c(=O)c2c1 [Compound No. 107, N-(4-(6-methoxy-3-methyl-4-oxo-3,4-dihydrophthalazin-1-yl)benzyl)sulfamide hydrochloride] | > 10
Cn1nc(-c2ccc3c(c2)CCN(C(=O)OC(C)(C)C)C3)c2ccccc2c1=O [Compound No. 27, tert-butyl-6-(3-methyl-4-oxo-3,4-dihydrophthalazin-1-yl)-3,4-dihydroisoquinoline-2(1H)-carboxylate] | > 10
COc1cc2c(Cc3ccc(NS(=O)(=O)NC(=O)OC(C)(C)C)cc3)n[nH]c(=O)c2cc1OC [Example 171, tert-butyl (N-(4-((6,7-dimethoxy-4-oxo-3,4-dihydrophthalazin-1-yl)methyl)phenyl)sulfamoyl)carbamate] | > 10
COc1cc2c(Cc3ccc4c(c3)CCN4)n[nH]c(=O)c2cc1OC [Example 165, 4-(indolin-5-yl-methyl)-6,7-dimethoxyphthalazin-1(2H)-one hydrochloride] | > 10
Cn1nc(Cc2ccc(N)cc2)c2ccccc2c1=O [Example 159, 4-(4-aminobenzyl)-2-methylphthalazin-1(2H)-one hydrochloride] | > 10
COc1cc2c(Cc3ccc4c(c3)CCN4C(=O)OC(C)(C)C)nn(C)c(=O)c2cc1OC [Example 155] | > 10
COc1cc2c(-c3ccc4c(c3)CCN(C(=O)OC(C)(C)C)C4)n[nH]c(=O)c2cc1OC [Compound No. 28, tert-butyl 6-(6,7-dimethoxy-4-oxo-3,4-dihydrophthalazin-1-yl)-3,4-dihydroisoquinoline-2(1H)-carboxylate] | > 10
Cn1nc(-c2ccc(CCS(N)(=O)=O)cc2)c2ccccc2c1=O [Example 202, 2-(4-(3-methyl-4-oxo-3,4-dihydrophthalazin-1-yl)phenyl)ethane-1-sulfonamide] | 1 to 10
COc1cc2c(-c3ccc(CNS(N)(=O)=O)c(C(F)(F)F)c3)n[nH]c(=O)c2cc1OC [Compound No. 119, hydrochloride] | 1 to 10
Cn1nc(-c2cccc(N)c2)c2ccccc2c1=O [Compound No. 31, 4-(3-aminophenyl)-2-methylphthalazin-1(2H)-one hydrochloride] | > 10
COc1cc2c(-c3ccc(CN)cc3)n[nH]c(=O)c2cc1OC [Compound No. 48, 4-(4-(aminomethyl)phenyl)-6,7-dimethoxyphthalazin-1(2H)-one hydrochloride] | < 1
CCn1nc(-c2ccc(CN)cc2)c2ccccc2c1=O [Compound No. 38, 4-(4-(aminomethyl)phenyl)-2-ethylphthalazin-1(2H)-one hydrochloride] | < 1
Cn1nc(-c2ccc(CNS(=O)(=O)NC(=O)OC(C)(C)C)cc2)c2ccccc2c1=O [Compound No. 66, tert-butyl (N-(4-(3-methyl-4-oxo-3,4-dihydrophthalazin-1-yl)benzyl)sulfamoyl)carbamate] | > 10
COc1cc2c(Cc3ccc4c(c3)CCN4S(N)(=O)=O)n[nH]c(=O)c2cc1OC [Example 187, 5-((6,7-dimethoxy-4-oxo-3,4-dihydrophthalazin-1-yl)methyl)indoline-1-sulfonamide hydrochloride] | < 1
COc1ccc2c(-c3ccc(CNS(N)(=O)=O)cc3)n[nH]c(=O)c2c1 [Compound No. 106, N-(4-(6-methoxy-4-oxo-3,4-dihydrophthalazin-1-yl)benzyl)sulfamide hydrochloride] | 1 to 10
COc1cc2c(-c3ccc(CN(C)S(N)(=O)=O)c(C(F)(F)F)c3)n[nH]c(=O)c2cc1OC [Compound No. 120, hydrochloride] | > 10
Cn1nc(-c2cccc(NS(N)(=O)=O)c2)c2ccccc2c1=O [Compound No. 88, N-(3-(3-methyl-4-oxo-3,4-dihydrophthalazin-1-yl)phenyl)sulfamide hydrochloride] | < 1
CC(C)(N)c1ccc(-c2n[nH]c(=O)c3ccccc23)cc1 [Compound No. 52, 4-(4-(2-aminopropan-2-yl)phenyl)phthalazin-1(2H)-one hydrochloride] | 1 to 10
